Measurements taken from ChEMBL document CHEMBL1157539, “Thousands of chemical starting points for antimalarial lead identification” (Nature, 2010).

The compounds below were run on Plasmodium falciparum (assay: GSK_TCMDC: Inhibition of Plasmodium falciparum 3D7 in whole erythrocytes, using parasite LDH activity as an index of growth.). Settings: Plasmodium falciparum, 3D7.
Format: functional, organism-based
C=C[C@]1(C)C[C@@H](OC(=O)CNC[C@@H](O)CN2C[C@H](c3ccnc4ccc(OC)nc34)OC2=O)[C@@]2(C)[C@@H]3C(=O)CC[C@@]3(CC[C@@H]2C)[C@@H](C)[C@@H]1O showed an XC50 of 948 nM. CN(C)CCN(C)Cc1ccc(-c2ccc(NC(=O)c3ccc(Cl)cc3)cc2)cc1 gave an XC50 of 943 nM. O=C(/C=C/c1ccccc1Cl)Nc1ccc(Br)c(OCCN2CCC(O)(c3ccccc3)CC2)c1 was tested, and the XC50 was 483 nM. CCN(CC)S(=O)(=O)c1ccc(CCOCCCCCNCC(O)c2cc(Cl)c(N)c(Cl)c2)s1 (configuration not stated) gave an XC50 of 858 nM. FC(F)(F)c1ccc2[nH]c(-c3ccc(-c4cccc(CNCc5ccccc5)c4)s3)nc2c1 gave an XC50 of 153 nM. CCCN1CCN(Cc2ccc(C(=O)Nc3ccc(Cl)cc3)cc2)CC1 gave an XC50 of 48.5 nM. Work on CC(Cc1ccc(OCCCCOc2ccccc2)cc1)NCCCN1CCOCC1 (configuration not stated) yielded an XC50 of 725 nM. c1ccc2cc(CNCCCN3CCN(CCCNCc4ccc5ccccc5c4)CC3)ccc2c1 was tested, and the XC50 was 545 nM. Cc1c(Cn2nc(Cl)c(N3CCNCC3)cc2=O)cccc1NC(=O)Nc1ccc(-c2ccccc2)cc1 gave an XC50 of 1380 nM. For O=C(NC1CC1)c1ccc(N2CCOc3ccc(Cl)cc32)s1, the XC50 was 803 nM. Compound CN1CCC(Oc2cc(NC(=O)Nc3ccc(-c4ccncc4)c(C(F)(F)F)c3)ccc2Cl)CC1 has an XC50 of 780 nM. Work on C=CC[C@H](NC(=O)c1ccc(NS(=O)(=O)c2ccc3nc(N)[nH]c(=O)c3c2)cc1)C(=O)OCCCC yielded an XC50 of 154 nM. With CCOC(=O)c1ccc(NC(=O)Nc2cccc(-c3ccc(-c4nc5cc(F)ccc5[nH]4)cc3)c2)cc1 the XC50 was 94.5 nM. CCCCCCCCc1c(C)nc(C)c(Br)c1O was tested, and the XC50 was 824 nM. For Cc1ccc(O)c(-c2cc(C(=O)Nc3ccc(S(=O)(=O)N4CCCCC4)cc3)[nH]n2)c1, the XC50 was 805 nM. Compound Cc1sc2nc(CSc3ccccc3)nc(N3CCN(CC(=O)NC4CC4)CC3)c2c1C has an XC50 of 462 nM. In the case of O=C(Nc1ccc(Cn2ncc(N3CCCNCC3)c(Cl)c2=O)cc1)Nc1cccc(Oc2ccccc2)c1, the XC50 is reported as 987 nM. c1ccc2cc3c(Nc4ccc(N5CCCCC5)cc4)ccnc3cc2c1 showed an XC50 of 739 nM. Compound O=C([C@H]1CCCCN1c1ccc([N+](=O)[O-])c2ccccc12)N1CCN(c2ncccn2)CC1 has an XC50 of 199 nM. With O=C(NCCc1cccc(F)c1)c1ccc(N2CCN(c3ccncc3)CC2)cn1 the XC50 was 1020 nM. COc1ccc2nccc([C@@H](O)CN3CCC(NC(=O)C(c4ccsc4)N4CCN(c5ccccc5)CC4)CC3)c2c1 (some centres not stated) gave an XC50 of 442 nM. CNC(=O)C1Cc2c([nH]c3cc(Br)ccc23)C2(CCN(CCc3ccccc3)CC2)N1 (configuration not stated) gave an XC50 of 721 nM. Cc1ccc(NC(=O)c2ccc(Cl)c(Cl)c2)cc1-c1ccc(C(=O)Nc2ccncc2)cc1 gave an XC50 of 567 nM. In the case of COc1cccc2c(O)c(CNC3CCCCC3)ccc12, the XC50 is reported as 630 nM. In the case of O=c1c2ccccc2nc(/C=C/c2ccc([N+](=O)[O-])cc2)n1-c1ccccn1, the XC50 is reported as 382 nM. Work on Cc1cc(C)n2nc(C(=O)Nc3cc(C(F)(F)F)ccc3N3CCOCC3)nc2n1 yielded an XC50 of 119 nM. COc1cc(-n2cnc3cc(-c4ccc(Cl)cc4)sc3c2=O)ccc1OCCN1CCC(c2cccc(NC(C)=O)c2)CC1 gave an XC50 of 553 nM. For Cc1c2ccc(N(C)c3ccnc(Nc4ccc5c(c4)nc(NC(C)C)n5C)n3)cc2nn1C, the XC50 was 159 nM. Work on O=C(Nc1cccc(-c2ccc(-c3nc4cc(C(F)(F)F)ccc4[nH]3)cc2)c1)c1ccoc1 yielded an XC50 of 714 nM. For Cc1ccc2c(=O)cc(CCc3cccc(F)c3F)n(CC(=O)N(Cc3ccc(-c4ccc(C(F)(F)F)cc4)cc3)C3CCN(C(C)C)CC3)c2n1, the XC50 was 776 nM. CCCc1ccc2c(c1O)CCC(N(CCC)CCC)C2 (configuration not stated) showed an XC50 of 886 nM. O=C(Nc1ccc(Cl)c(Cl)c1)N[C@H]1CCN(CCCCCNC(=O)C2CC2c2ccc(Cl)c(Cl)c2)C1 (some centres not stated) showed an XC50 of 1030 nM. With OC1CCN(c2cc(-c3ccccn3)nc(-c3ccccn3)n2)CC1 the XC50 was 1050 nM. With CCOc1ccc(Br)cc1/C=C/C(=O)Nc1ccc(C2CCN(C)CC2)cc1 the XC50 was 450 nM. O=C(/C=C/c1ccc(Cl)c(Cl)c1)NC1CCC(CN2CCC(c3coc4ccccc34)CC2)CC1 (configuration not stated) showed an XC50 of 826 nM. For O=C(/C=C/c1ccc(Cl)c(Cl)c1)NC1CCN(CCNC(=O)c2cccc(Cl)c2)CC1, the XC50 was 550 nM. Work on Oc1ccc(CCNc2nc(NCCCOc3ccccc3-c3cccnc3)nc(N3CCNCC3)n2)cc1 yielded an XC50 of 1040 nM. Work on Cc1ccccc1Cn1c(CN2CCC(C(=O)NC3CC3)CC2)cc2ccccc21 yielded an XC50 of 477 nM. Compound CCOc1c(Br)cc(Br)cc1CNCCCCNc1nc2ccccc2[nH]1 has an XC50 of 394 nM. Compound Cc1c(F)cc(C(=O)NC2CC2)cc1-c1ccc2c(cnn2S(=O)(=O)c2cccs2)c1 has an XC50 of 862 nM. In the case of CCc1cc2c(cc1CC)CC(NC[C@@H](O)c1ccc(O)c3[nH]c(=O)ccc13)C2, the XC50 is reported as 1120 nM. In the case of COc1ccc(S(=O)(=O)N2CCCC(C)C2)cc1N1CCN(C(=O)c2ccc([N+](=O)[O-])o2)CC1 (configuration not stated), the XC50 is reported as 1250 nM. COc1cc2c(cc1OC)C(C(=O)c1ccccc1)=NCC2 was tested, and the XC50 was 1090 nM. Cc1ccccc1C1CCN(C2CCC(NC(=O)/C=C/c3ccccc3C(F)(F)F)CC2)CC1 (configuration not stated) was tested, and the XC50 was 1410 nM. CCc1ccc(N2C(N)=NC(N)=NC2(C)C)cc1 showed an XC50 of 8.82 nM. Compound CCNc1cc(C(=O)N[C@@H](Cc2ccccc2)[C@H](O)CNCCc2cccc3ccccc23)cc(N2CCCC2=O)c1 has an XC50 of 982 nM. Compound CC(=O)N1N=C(c2ccccc2)Sc2c1nc(-c1ccc(Cl)cc1)n2C(C)=O has an XC50 of 986 nM. In the case of CC(C)(C)Oc1ccc(CC2NC3(C(=O)N(Cc4ccc(C(C)(C)C)cc4)c4ccccc43)C3C(=O)N(c4ccc(Br)cc4)C(=O)C23)cc1 (configuration not stated), the XC50 is reported as 717 nM. For Cc1ccc2[nH]ncc2c1N(CC1CCCCC1)c1ccnc(Nc2ccc(OCC(O)CN3CC=CCC3)cc2)n1 (configuration not stated), the XC50 was 622 nM. Compound Cc1nc(C)c(-c2ccc(Oc3cc(Cl)cc(Cl)c3)cc2)c(O)c1Cl has an XC50 of 524 nM. For Cc1cccc(C(=O)Nc2ccnc(N(C)CCCN(C)Cc3cccc(O)c3)c2)c1, the XC50 was 967 nM. COc1cccc(Nc2nccc(NCC(O)c3ccc(C(F)(F)F)cc3)n2)c1 (configuration not stated) was tested, and the XC50 was 659 nM. With CCc1cc2c(N)nc(N)nc2nc1-c1ccccc1 the XC50 was 946 nM. CC(C)(C)OC(=O)NCc1ccc(Nc2nnc(-c3cccc(C(=O)NCc4cc(C(F)(F)F)cc(C(F)(F)F)c4)c3)o2)cc1 was tested, and the XC50 was 865 nM. With CC(CN(C)C)C(=O)Nc1ccc(-c2cccc(-c3nc4cc(C(F)(F)F)ccc4[nH]3)c2)cc1 (configuration not stated) the XC50 was 210 nM. COc1cc2ncnc(Nc3ccc(Br)c(Cl)c3)c2cc1OC gave an XC50 of 718 nM. In the case of COc1c(C)[nH]c(C)c(-c2ccc(Oc3cccc(C(F)(F)F)c3)cc2)c1=O, the XC50 is reported as 314 nM. O=C(Nc1ccc(OC2CCN(Cc3ccsc3)CC2)c(Cl)c1)c1ccc(F)cc1 gave an XC50 of 647 nM. Work on COc1ccc(NC(=O)c2ccc(C=Cc3ccc(C(F)(F)F)cc3)cc2)cc1N1CCN(C)CC1 yielded an XC50 of 421 nM. For O=C(Nc1ccon1)c1cc(-c2cccnc2)nc2ccc(Cl)cc12, the XC50 was 786 nM. With COc1cc(Nc2nccc(N3CCC(NC(=O)c4cccc(NC(C)=O)c4)C3)n2)cc(OC)c1OC (configuration not stated) the XC50 was 828 nM. CN(C)CCCOc1ccc(CCNCc2cccc(Oc3ccc(Cl)cc3)c2)cc1 showed an XC50 of 887 nM. FC(F)(F)c1ccc2[nH]c(-c3ccc(-c4ccc(CN5CCN(c6cnccn6)CC5)cc4)cc3)nc2c1 was tested, and the XC50 was 687 nM. In the case of Cc1cc(N[C@@H](Cc2ccccc2)C(=O)NC2CCCC2)nc(NCCc2ccc(F)cc2)n1, the XC50 is reported as 803 nM. For O=c1cc(NCCC2CC=CCN2Cc2ccc(Cl)c(Cl)c2)[nH]c2ccccc12 (configuration not stated), the XC50 was 1730 nM. CCOc1ccc(Br)cc1/C=C/C(=O)Nc1ccc2c(c1)CCCN(C)C2 was tested, and the XC50 was 1050 nM. Compound Cc1cc(NCCC(=O)Nc2ccccc2)nc(NCc2ccccc2C)n1 has an XC50 of 657 nM. Compound CC(=O)Nc1ccc(C(=O)NC2CCN(c3ccnc4cc(Cl)ccc34)CC2)cc1 has an XC50 of 357 nM. O=C(Nc1ccc(Br)c(Cl)c1)c1cc([N+](=O)[O-])cc2cn[nH]c12 gave an XC50 of 1060 nM. With COc1cccc(C(NC(=O)c2ccccc2)c2ccc3cccnc3c2O)c1 (configuration not stated) the XC50 was 1080 nM. Nc1ccc(-c2csc(Nc3ccncc3)n2)cc1 gave an XC50 of 939 nM. Compound N/C(=N\c1cccc(Cc2ccccc2)n1)NCc1ccccc1 has an XC50 of 863 nM. Fc1cccc(COc2ccc(Nc3ncnc4sc(C#C[C@H]5CC[C@H](CNCC(F)(F)F)N5)cc34)cc2Cl)c1 was tested, and the XC50 was 1420 nM. In the case of FC(F)(F)c1cccnc1N1CCC(Nc2nc3cc(Cl)ccc3[nH]2)CC1, the XC50 is reported as 646 nM. Compound CC(C)CCn1c(Sc2ccc([N+](=O)[O-])cc2C(F)(F)F)nnc1-c1ccccc1Cl has an XC50 of 919 nM. Work on O=C1OC2(CCN(C(=O)c3ccc(-n4cnnn4)cc3)CC2)CN1Cc1ccc(Cl)c(Cl)c1 yielded an XC50 of 715 nM. Compound COc1cccc(C(=O)Nc2ccc(Nc3nc(C)cc(N4CCCCC4)n3)cc2)c1OC has an XC50 of 1020 nM. Work on CC(C)c1ccc(NC(=O)c2ccc(NCCCN(C)Cc3ccccc3)c([N+](=O)[O-])c2)cc1 yielded an XC50 of 683 nM. With CON(CCCN(C)C)C(=N)N the XC50 was 1080 nM. For CCN(CC(C)O)C(=O)c1ccc(-c2ccc(-c3nc4cccc(C)c4[nH]3)cc2)cc1 (configuration not stated), the XC50 was 840 nM. O=C(NC(=S)NCc1ccncc1)c1ccccc1 showed an XC50 of 1690 nM. CC(C)c1ccc(CN2CCC(CNC(=O)c3cc(-c4cccc(F)c4)cs3)C2)cc1 (configuration not stated) was tested, and the XC50 was 1660 nM. CN1CCC[C@H]1COc1ccc(CN2CC[C@H](NC(=O)c3ccc(Cl)c(Cl)c3)C2)cc1Cl gave an XC50 of 1150 nM. Compound O=[N+]([O-])c1cccc(CNC2CCN(Cc3ccc4ccccc4c3)CC2)c1 has an XC50 of 764 nM. With Clc1ccc(-c2cnc3ccc(NCc4ccncc4)nn23)cc1 the XC50 was 891 nM. With CN1CCc2cc(NC(=O)c3cc4ccccc4s3)cc(-c3ccccc3)c2CC1 the XC50 was 885 nM. O=C(c1ccc(-c2ccc(-c3nc4cc(C(F)(F)F)ccc4[nH]3)s2)cc1)N1CCCCC1CN1CCC(O)C1 (configuration not stated) was tested, and the XC50 was 560 nM. Compound O=C(NC1CCC(CN2CCC(c3c[nH]c4ccccc34)CC2)CC1)c1ccc(-c2ccccc2[N+](=O)[O-])o1 (configuration not stated) has an XC50 of 772 nM. COc1cc(SC)c(Br)cc1-c1nc2ccncc2[nH]1 gave an XC50 of 1100 nM. In the case of OC(CNCc1ccccc1OCc1ccccc1)c1cccc(Br)c1 (configuration not stated), the XC50 is reported as 643 nM. COc1ccc(-c2cnc3ccc(NCc4ccc(F)cc4)nn23)cc1OC was tested, and the XC50 was 834 nM. For Cc1cc(Nc2cccc(C(F)(F)F)c2)nc(N)n1, the XC50 was 790 nM. CCOC(C(=O)OCC1CCCN1C(C)C)(c1ccccc1)c1ccccc1 (configuration not stated) showed an XC50 of 763 nM. Work on NCCCCNc1cc(-c2ccnc(Nc3cccc(Cl)c3)n2)ccn1 yielded an XC50 of 284 nM. CCCCNC(=O)[C@H](CC1CCCCC1)NC(=O)c1ccc(O)c(-c2ccc(OC)cc2)c1 showed an XC50 of 920 nM. CCN(CCO)CCc1cccc(Nc2nccc(-c3c(-c4ccc(NC(=O)C(C)(C)C)cc4)nn4ccccc34)n2)c1 was tested, and the XC50 was 714 nM. CN(C)Cc1ccc(-c2cccc(Nc3nccc(NCC(O)c4ccccc4)n3)c2)cc1 (configuration not stated) showed an XC50 of 373 nM.
